Data on seven molecules can be found in patent US20160041146A1 (priority 2014, published 2016).

The format of the data set is in vivo, human. The note with it: for μA, population mean of ln(PMET/SMET), ratio of primary (parent) to secondary metabolite concentration in urine: large batch of historical UDT patient data (for quetiapine: model A), the σA is the standard deviation; for Urine concentration (median): 50 subjects. The text has this: Determining the amount of a drug in fluid of the subject may be accomplished by use of any method known to those skilled in the art. Non-limiting examples for determining the amount of a drug in fluid of a subject include fluorescence polarization immunoassay (“FPIA,” Abbott Diagnostics), mass spectrometry (MS), gas chromatography-mass spectrometry (GC-MS-MS), liquid chromatography-mass spectrometry (LC-MS-MS), and the like. In one embodiment, LC-MS-MS methods known to those skilled in the art are used to determine a raw level, amount or concentration of a drug in urine of the subject. In one embodiment, a raw level or concentration of a drug in urine of a subject is measured and reported as a ratio, percent, or in relationship to the amount of fluid. The amount of fluid may be expressed as a unit volume, for example, in L, mL, μL, pL, ounce, etc. In one embodiment, the raw amount of a drug in urine of a subject may be expressed as an absolute level or value, for example, in g, mg, μg, ng, pg, etc.
In an embodiment, the raw primary metabolite and secondary metabolite concentrations measured in urine of the subject are transformed and normalized (hereafter “Equation 3”): […]
where ln is the natural log, PMET is the concentration of the primary metabolite also referred to as the parent drug in […]; and SMET is the concentration of the secondary metabolite in […]. The value is then transformed into its corresponding value on the standard normal (e.g., Gaussian) distribution using (hereafter “Equation 4): […]
where NORMSTD(RATIO) is the standardized normal value (also referred to herein as the Z-score) and μA and σA are the mean and the standard deviation respectively of the population used to construct the model described in Equation 3. The resulting mean and standard deviation of the standardized normal distribution, NORMSTD(RATIO), are “0” and “1” respectively.
The Data Sets used to establish the ratio models were cleaned as detailed below and the resulting information used only considered patients who tested positive for the primary and secondary metabolite of interest and were prescribed the drug of interest. Furthermore, to ensure integrity of the data only patients with qualifying sample validity test information (sample pH and sample creatinine level), as described in detail in other embodiments were included in the model. […] Consequently, all patients were included in the model regardless of whether their illicit drug test was positive or negative.
Once the patient(s) meet acceptable Sample Validity test results and non-zero values, expected values based on the model can be calculated using the models described below (Equation 3 and Equation 4 detailed in other embodiments).

Setting [1] is: patient validity data set for Alprazolam model, average alprazolam dosage 2.26 mg.
The mark [2] stands for this setting: Oxycodone model population, approximately 48,800 patient results over one year, average daily dosage 36 mg.
Where [3] appears, read: patient validity data set for Oxycodone model, average oxycodone dosage 24 mg.
The mark [4] stands for this setting: patient validity data set for Quetiapine models, average quetiapine dosage 299 mg.

Read-outs that look alike come from different tables or passages of the source.

As to `Cc1nnc2n1-c1ccc(Cl)cc1C(c1ccccc1)=NC2` [alprazolam], the “μA, population mean of ln(PMET/SMET), ratio of primary (parent) to secondary metabolite concentration in urine” value is on record as −0.463. In addition, the “Urine concentration (median)” value under setting [1] was 118 ng/mL.

For the molecule `COc1ccc2c3c1O[C@H]1C(=O)CC[C@@]4(O)[C@@H](C2)N(C)CC[C@]314` [oxycodone], the “μA, population mean of ln(PMET/SMET), ratio of primary (parent) to secondary metabolite concentration in urine” value was −0.083. Also, the “median urine drug concentration” value under setting [2] worked out at 1421 ng/mL. The “Urine concentration (median)” value under setting [3] turned out to be 1509 ng/mL.

Turning to `COc1ccc2c3c1O[C@H]1C(=O)CC[C@H]4[C@@H](C2)N(C)CC[C@]314` [hydrocodone], the “μA, population mean of ln(PMET/SMET), ratio of primary (parent) to secondary metabolite concentration in urine” value is given as 0.996. The “median urine drug concentration” value (Hydrocodone model population, approximately 84,000 patient results over one year, average daily dosage 32 mg) is listed as 1395 ng/mL. Under “patient validity data set for Hydrocodone model, average hydrocodone dosage 26 mg”, the “Urine concentration (median)” value was found to be 1428 ng/mL.

Turning to `OCCOCCN1CCN(C2=Nc3ccccc3Sc3ccccc32)CC1` [quetiapine], the “Urine concentration (median)” value under setting [4] was 69 ng/mL.

Turning to `OCCOCCN1CCN(C2=Nc3ccc(O)cc3Sc3ccccc32)CC1` [7-hydroxyquetiapine], the “median urine drug concentration” value runs as follows: (Alprazolam model population, approximately 256,000 patient results over nine years, average daily dosage 3 mg) 329 ng/mL; (Quetiapine model A population, approximately 5,455 patient results collected over three years, average daily dosage 229 mg) 95 ng/mL; (Quetiapine model B population, approximately 236 patient results, six month clinical trial, average daily dosage 310 mg) 55 ng/mL. Further, the “Urine concentration (median)” value under setting [4] was 62 ng/mL.

With `CN1CC[C@]23c4c5ccc(O)c4O[C@H]2C(=O)CC[C@@]3(O)[C@H]1C5` [oxymorphone], the “median urine drug concentration” value under setting [2] is on record as 1248 ng/mL. Moreover, under setting [3], the “Urine concentration (median)” value came out at 1579 ng/mL.

Turning to `OCc1nnc2n1-c1ccc(Cl)cc1C(c1ccccc1)=NC2` [alpha-hydroxyalprazolam], the “Urine concentration (median)” value under setting [1] is recorded as 265 ng/mL.
